US20070004660A1, “Synergistic Modulation of Flt3 Kinase Using Alkylquinolines and Alkylquinazolines” (priority 2005, published 2007)

Tested on: MV4-11 cells
Experiment: Inhibition of MV4-11 cell proliferation (CellTiterGlo, 72 h)
Assay type: cell-based
Conditions: Homo sapiens; 72 h growth inhibition; uncertainty ±20%

Row | IC50 [nM] | Structure (SMILES)
1 | 48 | COc1cc2ncnc(C3CCN(C(=O)Nc4ccc(C(C)(C)C)cc4)CC3)c2cc1OC [Example 53, 4-(6,7-Dimethoxy-quinazolin-4-yl)-piperidine-1-carboxylic acid (4-tert-butyl-phenyl)-amide]
2 | 224 | COc1cc2ncnc(C3CCN(C(=O)NC4CCC(C(C)(C)C)CC4)CC3)c2cc1OC (stereo not shown) [Example 54, 4-(6,7-Dimethoxy-quinazolin-4-yl)-piperidine-1-carboxylic acid (4-tert-butyl-cyclohexyl)-amide]
3 | 2600 | COc1cc2ncnc(C3CCN(C(=O)Nc4ccc(C(C)O)cc4)CC3)c2cc1OC (stereo not shown) [Example 55, 4-(6,7-Dimethoxy-quinazolin-4-yl)-piperidine-1-carboxylic acid [4-(1-hydroxy-ethyl)-phenyl]-amide]
4 | 189 | COc1cc2ncnc(C3CCN(C(=O)Nc4ccc(OC(C)C)nc4)CC3)c2cc1OC [Example 56, 4-(6,7-Dimethoxy-quinazolin-4-yl)-piperidine-1-carboxylic acid (6-isopropoxy-pyridin-3-yl)-amide]
5 | 1200 | COc1cc2ncnc(C3CCN(C(=O)Nc4ccc(N5CCCC5=O)cc4)CC3)c2cc1OC [Example 57, 4-(6,7-Dimethoxy-quinazolin-4-yl)-piperidine-1-carboxylic acid [4-(2-oxo-pyrrolidin-1-yl)-phenyl]-amide]
6 | 2000 | COc1cc2ncnc(C3CCN(C(=O)Nc4ccc(-c5cncnc5)cc4)CC3)c2cc1OC [Example 58, 4-(6,7-Dimethoxy-quinazolin-4-yl)-piperidine-1-carboxylic acid (4-pyrimidin-5-yl-phenyl)-amide]
7 | 269 | COc1cc2ncnc(C3CCN(C(=O)Nc4ccc(-c5ccco5)cc4)CC3)c2cc1OC [Example 59, 4-(6,7-Dimethoxy-quinazolin-4-yl)-piperidine-1-carboxylic acid (4-furan-2-yl-phenyl)-amide]
8 | 1400 | COc1cc2ncnc(C3CCN(C(=O)Nc4ccc(-c5ccc(Cl)nc5)cc4)CC3)c2cc1OC [Example 60, 4-(6,7-Dimethoxy-quinazolin-4-yl)-piperidine-1-carboxylic acid [4-(6-chloro-pyridin-3-yl)-phenyl]-amide]
9 | 6000 | COc1cc2ncnc(C3CCN(C(=O)Nc4ccc(C5=CCN(C(=O)OC(C)(C)C)CC5)cc4)CC3)c2cc1OC [Example 61, 4-(4-{[4-(6,7-Dimethoxy-quinazolin-4-yl)-piperidine-1-carbonyl]-amino}-phenyl)-3,6-dihydro-2H-pyridine-1-carboxylic acid tert-butyl ester]
10 | 7500 | COc1cc2ncnc(C3CCN(C(=O)Nc4ccc(C5=CCNCC5)cc4)CC3)c2cc1OC [Example 62, 4-(6,7-Dimethoxy-quinazolin-4-yl)-piperidine-1-carboxylic acid [4-(1,2,3,6-tetrahydro-pyridin-4-yl)-phenyl]-amide]
11 | 4100 | COc1cc2ncnc(C3CCN(C(=O)Nc4ccc(C5CCN(C(=O)OC(C)(C)C)CC5)cc4)CC3)c2cc1OC [Example 63, 4-(4-{[4-(6,7-Dimethoxy-quinazolin-4-yl)-piperidine-1-carbonyl]-amino}-phenyl)-piperidine-1-carboxylic acid tert-butyl ester]
12 | 27 | CC(C)Oc1ccc(NC(=O)N2CCC(c3ncnc4cc(OCCCNS(C)(=O)=O)ccc34)CC2)cc1 [Example 65, 4-[7-(3-Methanesulfonylamino-propoxy)-quinazolin-4-yl]-piperidine-1-carboxylic acid (4-isopropoxy-phenyl)-amide]
13 | 14 | CS(=O)(=O)NCCCOc1ccc2c(C3CCN(C(=O)Nc4ccc(N5CCOCC5)cc4)CC3)ncnc2c1 [Example 66, 4-[7-(3-Methanesulfonylamino-propoxy)-quinazolin-4-yl]-piperidine-1-carboxylic acid (4-morpholin-4-yl-phenyl)-amide]
14 | 9 | CC(C)Oc1ccc(NC(=O)N2CCC(c3ncnc4cc(OCCCN5CCCC5=O)ccc34)CC2)cc1 [Example 67, 4-{7-[3-(2-Oxo-pyrrolidin-1-yl)-propoxy]-quinazolin-4-yl}-piperidine-1-carboxylic acid (4-isopropoxy-phenyl)-amide]
15 | 30 | O=C1CCCN1CCCOc1ccc2c(C3CCN(C(=O)Nc4ccc(N5CCOCC5)cc4)CC3)ncnc2c1 [Example 68, 4-{7-[3-(2-Oxo-pyrrolidin-1-yl)-propoxy]-quinazolin-4-yl}-piperidine-1-carboxylic acid (4-morpholin-4-yl-phenyl)-amide]
16 | 59 | COc1cc2ncnc(C3CCN(C(=O)Nc4ccc(OC5CCCC5)nc4)CC3)c2cc1OC [Example 69, 4-(6,7-Dimethoxy-quinazolin-4-yl)-piperidine-1-carboxylic acid (6-cyclopentyloxy-pyridin-3-yl)-amide]
17 | 54 | O=C1CCCN1CCCOc1ccc2c(C3CCN(C(=O)Nc4ccc(N5CCOCC5)nc4)CC3)ncnc2c1 [Example 72, 4-{7-[3-(2-Oxo-pyrrolidin-1-yl)-propoxy]-quinazolin-4-yl}-piperidine-1-carboxylic acid (6-morpholin-4-yl-pyridin-3-yl)-amide]

Row | IC50 [nM] | Structure (SMILES)
18 | 40 | O=C1CCCN1CCOc1ccc2c(C3CCN(C(=O)Nc4ccc(N5CCCC5)cc4)CC3)ncnc2c1 [Example 74, 4-{7-[2-(2-Oxo-pyrrolidin-1-yl)-ethoxy]-quinazolin-4-yl}-piperidine-1-carboxylic acid (4-pyrrolidin-1-yl-phenyl)-amide]
19 | 70 | O=C(Nc1ccc(N2CCOCC2)cc1)N1CCC(c2ncnc3cc(OCCCN4CCCCC4)ccc23)CC1 [Example 75]
20 | 179 | CC(C)Oc1ccc(NC(=O)N2CCC(c3ncnc4ccc(OCCCN5CCN(C)CC5)cc34)CC2)cc1 [Example 76, 4-{6-[3-(4-Methyl-piperazin-1-yl)-propoxy]-quinazolin-4-yl}-piperidine-1-carboxylic acid (4-isopropoxy-phenyl)-amide]
21 | 139 | O=C(Nc1ccc(N2CCOCC2)cc1)N1CCC(c2ncnc3cc(OCCCO)ccc23)CC1 [Example 77, 4-[7-(3-Hydroxy-propoxy)-quinazolin-4-yl]-piperidine-1-carboxylic acid (4-morpholin-4-yl-phenyl)-amide]
22 | 81 | COCCCOc1ccc2c(C3CCN(C(=O)Nc4ccc(N5CCOCC5)cc4)CC3)ncnc2c1 [Example 78, 4-[7-(3-Methoxy-propoxy)-quinazolin-4-yl]-piperidine-1-carboxylic acid (4-morpholin-4-yl-phenyl)-amide]
23 | 44 | CC(C)Oc1ccc(NC(=O)N2CCC(c3ncnc4cc(OCCN5CCOC5=O)ccc34)CC2)cc1 [Example 79, 4-{7-[2-(2-Oxo-oxazolidin-3-yl)-ethoxy]-quinazolin-4-yl}-piperidine-1-carboxylic acid (4-isopropoxy-phenyl)-amide]
24 | 52 | CN1CCN(CCCOc2ccc3c(C4CCN(C(=O)Nc5ccc(N6CCOCC6)nc5)CC4)ncnc3c2)CC1 [Example 80, 4-{7-[3-(4-Methyl-piperazin-1-yl)-propoxy]-quinazolin-4-yl}-piperidine-1-carboxylic acid (6-morpholin-4-yl-pyridin-3-yl)-amide]
25 | 70 | CN1CCN(CCCOc2ccc3c(C4CCN(C(=O)Nc5ccc(N6CCOCC6)c(F)c5)CC4)ncnc3c2)CC1 [Example 81, 4-{7-[3-(4-Methyl-piperazin-1-yl)-propoxy]-quinazolin-4-yl}-piperidine-1-carboxylic acid (3-fluoro-4-morpholin-4-yl-phenyl)-amide]
26 | 18 | CN1CCN(CCCOc2ccc3c(C4CCN(C(=O)Nc5ccc(OC6CCCC6)nc5)CC4)ncnc3c2)CC1 [Example 82, 4-{7-[3-(4-Methyl-piperazin-1-yl)-propoxy]-quinazolin-4-yl}-piperidine-1-carboxylic acid (6-cyclopentyloxy-pyridin-3-yl)-amide]
27 | 112 | O=C1CCCN1CCOc1ccc2c(C3CCN(C(=O)Nc4ccc(N5CCOCC5)nc4)CC3)ncnc2c1 [Example 83, 4-{7-[2-(2-Oxo-pyrrolidin-1-yl)-ethoxy]-quinazolin-4-yl}-piperidine-1-carboxylic acid (6-morpholin-4-yl-pyridin-3-yl)-amide]
28 | 74 | O=C1CCCN1CCOc1ccc2c(C3CCN(C(=O)Nc4cnc(N5CCCC5)nc4)CC3)ncnc2c1 [Example 84, 4-{7-[2-(2-Oxo-pyrrolidin-1-yl)-ethoxy]-quinazolin-4-yl}-piperidine-1-carboxylic acid (2-pyrrolidin-1-yl-pyrimidin-5-yl)-amide]
29 | 58 | O=C1CCCN1CCOc1ccc2c(C3CCN(C(=O)Nc4ccc(N5CCOCC5)cc4)CC3)ncnc2c1 [Example 85, 4-{7-[2-(2-Oxo-pyrrolidin-1-yl)-ethoxy]-quinazolin-4-yl}-piperidine-1-carboxylic acid (4-morpholin-4-yl-phenyl)-amide]
30 | 17 | CS(=O)(=O)NCCCOc1ccc2c(C3CCN(C(=O)Nc4ccc(N5CCCC5)nc4)CC3)ncnc2c1 [Example 86, 4-[7-(3-Methanesulfonylamino-propoxy)-quinazolin-4-yl]-piperidine-1-carboxylic acid (6-pyrrolidin-1-yl-pyridin-3-yl)-amide]
31 | 69 | CS(=O)(=O)NCCCOc1ccc2c(C3CCN(C(=O)Nc4ccc(N5CCOCC5)nc4)CC3)ncnc2c1 [Example 87, 4-[7-(3-Methanesulfonylamino-propoxy)-quinazolin-4-yl]-piperidine-1-carboxylic acid (6-morpholin-4-yl-pyridin-3-yl)-amide]
32 | 37 | CS(=O)(=O)NCCCOc1ccc2c(C3CCN(C(=O)Nc4ccc(OC5CCCC5)nc4)CC3)ncnc2c1 [Example 88, 4-[7-(3-Methanesulfonylamino-propoxy)-quinazolin-4-yl]-piperidine-1-carboxylic acid (6-cyclopentyloxy-pyridin-3-yl)-amide]
33 | 24 | O=C1CCCN1CCCOc1ccc2c(C3CCN(C(=O)Nc4ccc(N5CCCC5)nc4)CC3)ncnc2c1 [Example 89, 4-{7-[3-(2-Oxo-pyrrolidin-1-yl)-propoxy]-quinazolin-4-yl}-piperidine-1-carboxylic acid (6-pyrrolidin-1-yl-pyridin-3-yl)-amide]

Row | Structure (SMILES) | IC50 [nM]
34 | CN1CCN(CCCOc2ccc3c(C4CCN(C(=O)Nc5ccc(N6CCOCC6)cc5)CC4)ncnc3c2)CC1 [Example 73, 4-{7-[3-(4-Methyl-piperazin-1-yl)-propoxy]-quinazolin-4-yl}-piperidine-1-carboxylic acid (4-morpholin-4-yl-phenyl)-amide] | 40
